Reference: US9783485B1, “Crystalline inhibitor of 4-hydroxyphenylpyruvate dioxygenase, and a process of synthesis and crystallization thereof” (Dipharma S.A., priority 2016, dated 2017)

Test: Stability studies of nitisinone obtained through the process of the invention (storage; appearance, KF water, HPLC assay, impurities by HPLC and HPLC/MS)
Format: physicochemical
From the text: When referring to purity determined by HPLC techniques, said chromatograms are gathered at a wavelength of 235 nm. […] The presence of impurity-4 was checked by reverse HPLC/MS using the method described in the table underneath. [table] [table]

O=C1CCCC(=O)C1C(=O)c1ccc(C(F)(F)F)cc1[N+](=O)[O-] [nitisinone, 2-(2-nitro-4-trifluoromethylbenzoyl)-1,3-cyclohexanedione]
stability (in words) (even in accelerated conditions, period of at least six months): extremely stable | impurity-4 content (in words) (independently from the storage conditions, reverse HPLC/MS): below the limit of quantification
